In patent publication US20060293242A1, “Transporting of taxoid derivatives through the blood brain barrier” (priority 2001, published 2006):
Residues, ends and D or L forms follow the SMILES beside them. *: point of attachment. Paclitaxel(2'-O-succinyl) = CC(=O)O[C@H]1C(=O)[C@@]2(C)[C@H]([C@H](OC(=O)c3ccccc3)[C@]3(O)C[C@H](OC(=O)[C@H](OC(=O)CCC(=O)*)[C@@H](NC(=O)c4ccccc4)c4ccccc4)C(C)=C1C3(C)C)[C@]1(OC(C)=O)CO[C@@H]1C[C@@H]2O

Columns and labels:
[1] = test system: MCF-7 (breast cancer) cells; assay: Cytotoxicity assay (MTT), MCF-7 cells; assay type: cell-based; conditions: Homo sapiens, MCF7, MTT test, read-out: IC50 (concentration resulting in 50% inhibition of growth)
Method: (§1) 9 L (glioblastome), MCF-7 and MDA-MB-435 (breast cancer), and SK-N-SH (neuroblastome) cells were obtained commercially from ATCC. The cells are seeded at approximately 10^4 cells per well, 24 h before addition of the products. They are then at 60-80% confluence on the day of the experiment. The cells are maintained in culture at 37° C. in an atmosphere at 95% humidity and 5% CO2 in an OptiMem® medium.
(§2) The cells are incubated either with free Taxol or with the vectorized Taxol at increasing concentrations for 48 hours to 72 hours. At the end of the culturing period, MTT (3-(4,5-dimethylthiazole-2-yl)-2,5-diphenyltetrazolium bromide) is added to the wells and the culture plates are then incubated for 4 hours in an incubator. The resulting crystalline deposit of formazan is then dissolved by addition of 200 μl of DMF/SDS. The optical density (OD) is measured at 550 nm (reference 630 nm) using a microplate reader. […]
(§3) The sensitivity of the 9L, MCF-7, MDA-MB-435 and SK-N-SH cells to free Taxol and to the vectorized Taxol was measured by the MTT test under the experimental conditions defined above for which the relationship between the optical density and the number of viable cells is linear.
(§4) These cells are incubated with increasing concentrations of product and, after […] of incubation, cell survival is measured by the MTT test.

[2] = test system: SK-N-SH (neuroblastome) cells; assay: Cytotoxicity assay (MTT), SK-N-SH cells; assay type: cell-based; conditions: Homo sapiens, MTT test, read-out: IC50 (concentration resulting in 50% inhibition of growth)
Method: as §1, §2, §3, §4

[3] = test system: MDA-MB-435 (breast cancer) cells; assay: Cytotoxicity assay (MTT), MDA-MB-435 cells; assay type: cell-based; conditions: Homo sapiens, MTT test, read-out: IC50 (concentration resulting in 50% inhibition of growth)
Method: as §1, §2, §3, §4

9 L (glioblastome) cells = assay: Cytotoxicity assay (MTT), 9L cells; assay type: cell-based; conditions: for IC50: 9L cells, MTT test, read-out: IC50 (concentration resulting in 50% inhibition of growth)
Method: as §1
The cells are incubated either with free Taxol or with the vectorized Taxol at increasing concentrations for 48 hours to 72 hours. At the end of the culturing period, MTT (3-(4,5-dimethylthiazole-2-yl)-2,5-diphenyltetrazolium bromide) is added to the wells and the culture plates are then incubated for 4 hours in an incubator. The resulting crystalline deposit of formazan is then dissolved by addition of 200 μl of DMF/SDS. The optical density (OD) is measured at 550 nm (reference 630 nm) using a microplate reader.
Graphic representation of the percentages of OD of the treated wells as a function of the concentration of products makes it possible to determine the IC50. This corresponds to the concentration of the product which inhibits 50% of growth.
as §3, §4

blood/brain barrier = assay: In situ brain perfusion (BBB penetration, Kin); assay type: in vivo; conditions: mouse, in situ brain perfusion for 60 seconds in buffer, 14C-labelled Taxol, FIG. 2
Method: Mice (20-25 g, Iffa-Credo, Arbresle, France) are anesthetized. After exposure of the common carotid, the right external carotid artery is ligated at the level of the bifurcation with the internal carotid and the common carotid is ligated between the heart and the site of implantation of the catheter (polyethylene catheter, ID: 0.76). This catheter, prefilled with a solution of heparin (100 units/ml), is inserted into the common carotid. The mice are perfused with the perfusion buffer (128 mM NaCl, 24 mM NaHCO3, 4.2 mM KCl, 2.4 mM NaH2PO4, 1.5 mM CaCl2, 0.9 mM MgSO4 and 9 mM D-glucose) This buffer is filtered and then a mixture containing 95% 02/5% CO2 is bubbled in order to maintain the pH close to 7.4 and to provide the brain with oxygen during the perfusion.
The mice are perfused with the buffer containing free Taxol or vectorized Taxol. In each product, the Taxol is radiolabeled with carbon 14 (specific activity: 55 mCi/mmole, Sigma, France). Just before the beginning of perfusion, the heart is stopped by sectioning the ventricles, in order to avoid reflux of the perfusate during perfusion. The right hemisphere is then perfused at a rate of 10 ml/min for 60 seconds, after which the mouse is decapitated. The amount of radioactivity in the right hemisphere is then measured and the brain penetration (Kin) is calculated. […]

| Structure (SMILES) | IC50 [1] [nM] | IC50 [2] [nM] | IC50 [3] [nM] | IC50 (9 L (glioblastome) cells) [nM] | solubility (physchem) [µg/mL] | increase of passage into the brain (Kin) versus free Taxol (blood/brain barrier) | times more active than the free Taxol (9 L (glioblastome) cells; 9 L cell line, ratio of IC50) |
| --- | --- | --- | --- | --- | --- | --- | --- |
| CC(=O)O[C@H]1C(=O)[C@@]2(C)[C@H]([C@H](OC(=O)c3ccccc3)[C@]3(O)C[C@H](OC(=O)[C@H](O)[C@@H](NC(=O)c4ccccc4)c4ccccc4)C(C)=C1C3(C)C)[C@]1(OC(C)=O)CO[C@@H]1C[C@@H]2O [Free Taxol, paclitaxel] | 42 | 87 | 95 | 3500 | – | – | – |
| CC(=O)O[C@H]1C(=O)[C@@]2(C)[C@H]([C@H](OC(=O)c3ccccc3)[C@]3(O)C[C@H](OC(=O)[C@H](OC(=O)CCC(=O)N[C@@H](CCCNC(=N)N)C(=O)N[C@@H](CCCNC(=N)N)C(=O)N[C@@H](CC(C)C)C(=O)N[C@@H](CO)C(=O)N[C@@H](Cc4ccc(O)cc4)C(=O)N[C@@H](CO)C(=O)N[C@@H](CCCNC(=N)N)C(=O)N[C@@H](CCCNC(=N)N)C(=O)N[C@@H](CCCNC(=N)N)C(=O)N[C@@H](Cc4ccccc4)C(=O)O)[C@@H](NC(=O)c4ccccc4)c4ccccc4)C(C)=C1C3(C)C)[C@]1(OC(C)=O)CO[C@@H]1C[C@@H]2O [Taxol-SynB3] ({Paclitaxel(2'-O-succinyl)}-RRLSYSRRRF-OH; N-terminus and C-terminus assumed) | – | – | – | 600 | > 10000 | approximately 12 fold | approximately 5 times |
